Test results reported in patent publication US20200392158A1, “INHIBITORS OF LEUCINE RICH REPEAT KINASE 2” (GLAXOSMITHKLINE INTELLECTUAL PROPERTY DEVELOPMENT LIMITED, priority 2017, published 2020).

Target: T1, LRRK2 kinase in SH-SY5Y cells over-expressing recombinant full length LRRK2 (Homo sapiens, UniProt Q5S007)
T1 construct: A BacMam virus expressing full length recombinant LRRK2 was purchased from Invitrogen; host or cells: SH-SY5Y human neuroblastoma cells transduced with BacMam LRRK2 virus
T1 sequence (Q5S007 whole entry): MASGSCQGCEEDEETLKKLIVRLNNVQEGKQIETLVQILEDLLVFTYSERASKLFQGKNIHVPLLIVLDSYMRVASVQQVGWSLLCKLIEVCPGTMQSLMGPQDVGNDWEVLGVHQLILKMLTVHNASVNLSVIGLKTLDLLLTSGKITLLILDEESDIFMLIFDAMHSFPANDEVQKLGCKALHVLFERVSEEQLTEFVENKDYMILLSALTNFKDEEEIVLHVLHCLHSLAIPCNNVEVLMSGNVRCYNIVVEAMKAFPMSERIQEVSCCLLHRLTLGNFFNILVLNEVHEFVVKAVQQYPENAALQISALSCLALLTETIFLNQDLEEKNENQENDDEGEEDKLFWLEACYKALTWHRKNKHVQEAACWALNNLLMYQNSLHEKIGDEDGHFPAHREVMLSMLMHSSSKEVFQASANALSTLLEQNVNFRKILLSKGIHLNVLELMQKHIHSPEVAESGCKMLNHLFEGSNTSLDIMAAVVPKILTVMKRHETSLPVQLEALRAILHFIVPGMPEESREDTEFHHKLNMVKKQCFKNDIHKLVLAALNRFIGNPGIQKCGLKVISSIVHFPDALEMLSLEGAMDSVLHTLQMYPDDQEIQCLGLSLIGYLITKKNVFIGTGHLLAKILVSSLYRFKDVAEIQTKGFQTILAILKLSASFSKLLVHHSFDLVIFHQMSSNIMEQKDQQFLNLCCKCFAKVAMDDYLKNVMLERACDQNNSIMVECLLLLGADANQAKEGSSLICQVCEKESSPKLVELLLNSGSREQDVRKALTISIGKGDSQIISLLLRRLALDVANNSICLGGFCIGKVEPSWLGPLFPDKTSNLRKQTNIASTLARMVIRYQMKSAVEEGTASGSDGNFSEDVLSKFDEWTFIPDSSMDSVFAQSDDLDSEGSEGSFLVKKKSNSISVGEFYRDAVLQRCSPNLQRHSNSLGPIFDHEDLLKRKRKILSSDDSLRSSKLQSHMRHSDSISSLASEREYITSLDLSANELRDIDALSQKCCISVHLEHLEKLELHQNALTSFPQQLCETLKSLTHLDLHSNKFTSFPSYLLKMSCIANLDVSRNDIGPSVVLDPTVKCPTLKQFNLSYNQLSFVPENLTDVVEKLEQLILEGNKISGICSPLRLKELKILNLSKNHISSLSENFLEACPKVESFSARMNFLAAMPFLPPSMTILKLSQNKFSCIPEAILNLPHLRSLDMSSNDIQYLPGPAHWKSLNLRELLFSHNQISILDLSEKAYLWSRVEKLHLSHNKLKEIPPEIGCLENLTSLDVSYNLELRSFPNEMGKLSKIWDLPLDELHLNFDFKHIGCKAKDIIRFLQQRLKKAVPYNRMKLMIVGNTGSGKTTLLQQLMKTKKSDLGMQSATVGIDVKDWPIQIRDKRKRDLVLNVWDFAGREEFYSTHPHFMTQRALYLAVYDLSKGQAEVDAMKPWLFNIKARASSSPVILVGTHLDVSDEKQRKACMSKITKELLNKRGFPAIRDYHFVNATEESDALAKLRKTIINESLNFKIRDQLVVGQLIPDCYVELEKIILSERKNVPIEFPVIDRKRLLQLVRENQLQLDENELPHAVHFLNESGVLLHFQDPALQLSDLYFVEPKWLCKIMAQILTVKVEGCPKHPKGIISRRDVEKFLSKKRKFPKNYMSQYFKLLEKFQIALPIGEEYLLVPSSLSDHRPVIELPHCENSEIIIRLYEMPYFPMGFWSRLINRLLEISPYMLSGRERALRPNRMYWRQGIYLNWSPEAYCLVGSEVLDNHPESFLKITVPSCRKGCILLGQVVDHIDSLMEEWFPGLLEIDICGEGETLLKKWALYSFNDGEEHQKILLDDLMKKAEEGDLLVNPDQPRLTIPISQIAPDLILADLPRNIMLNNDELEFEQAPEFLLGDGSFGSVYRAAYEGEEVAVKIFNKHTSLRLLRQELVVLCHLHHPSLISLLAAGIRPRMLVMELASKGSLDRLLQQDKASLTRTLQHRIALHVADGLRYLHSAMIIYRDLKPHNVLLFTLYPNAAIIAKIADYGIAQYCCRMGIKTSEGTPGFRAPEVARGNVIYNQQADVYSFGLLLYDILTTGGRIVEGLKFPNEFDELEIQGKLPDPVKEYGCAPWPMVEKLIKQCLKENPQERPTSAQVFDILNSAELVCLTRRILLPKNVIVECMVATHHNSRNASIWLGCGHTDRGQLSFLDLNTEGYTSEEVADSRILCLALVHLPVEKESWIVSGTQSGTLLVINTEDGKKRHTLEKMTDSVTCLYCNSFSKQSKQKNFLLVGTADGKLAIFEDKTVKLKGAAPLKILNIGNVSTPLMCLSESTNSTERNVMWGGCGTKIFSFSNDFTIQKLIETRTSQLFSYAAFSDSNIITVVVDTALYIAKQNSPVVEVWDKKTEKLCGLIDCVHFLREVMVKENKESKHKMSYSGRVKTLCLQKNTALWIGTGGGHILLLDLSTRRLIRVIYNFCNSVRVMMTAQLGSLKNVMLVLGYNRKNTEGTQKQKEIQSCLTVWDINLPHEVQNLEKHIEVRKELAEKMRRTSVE
Experiment: Recombinant cellular LRRK2 AlphaScreen assay (LRRK2 Ser935 phosphorylation)
Assay type: cell-based
Conditions: 60 min
From the text: b. Recombinant Cellular LRRK2 AlphaScreen Assay
To determine the activity of compounds against LRRK2 kinase in cells, the observed LRRK2 kinase-dependent modulation of LRRK2 Ser 935 phosphorylation (Dzamko et al., 2010, Biochem. J. 430: 405-413) was utilized to develop a quantitative 384 well plate-based immunoassay of LRRK2 Ser935 phosphorylation in the human neuroblastoma cell line SH-SY5Y, engineered to over-express recombinant full length LRRK2 protein.
A BacMam virus expressing full length recombinant LRRK2 was purchased from Invitrogen and amplified by inoculation of SF-9 cells at MOI 0.3 for 4-5 days in Sf-900 III SFM medium supplemented with 3% fetal bovine serum. Infected cell cultures were then centrifuged at 2000 g for 20 minutes, viral supernatant titer determined by anti-gp64 plaque assay and stored at 4° C.
Affinity-purified anti-phospho LRRK2 Ser935 sheep polyclonal antibody (Dzamko et al., 2010, Biochem. J. 430: 405-413) was biotinylated by standard methods (PerkinElmer). Anti-LRRK2 rabbit polyclonal antibody was purchased from Novus Biologicals. AlphaScreen Protein A IgG Kit (including acceptor and donor beads) was purchased from Perkin Elmer.
SH-SY5Y cells were grown in DMEM/F12 medium with 10% dialysed fetal bovine serum and harvested by treatment with 0.5% trypsin-EDTA for 5 minutes at 37° C. followed by centrifugation at 1000 rpm for 4 minutes. The cell pellet was resuspended in Opti-MEM reduced serum media (Invitrogen) at 200,000 cells/ml and mixed with the BacMam LRRK2 virus at M01=50. 50 μl cell solutions were then dispensed to each well of a 384-well plate and incubated at 37° C., 5% CO2 for 24 hours.
Compounds were prepared at 10× final assay concentration as 11 point 1 in 4 serial I dilutions in Opti-MEM reduced serum medium (Invitrogen 31985070) containing 1% DMSO. On the day of assay, 5.5 μl of the compound solutions were transferred from the compound plate to the cell assay plate to achieve a top final assay concentration of 10 uM. DMSO (0.1% final assay concentration) was added to column 6 and 2-(benzyloxy)-5-methyl-4-(1-methyl-1H-pyrazol-4-yl)-N-(pyridin-3-yl)benzamide (2 μM final assay concentration) was added to column 18 to serve as 0% and 100% inhibition controls, respectively.
Cells were incubated at 37° C., 5% CO2 for 60 minutes. The medium was then removed and cells lysed by addition of 20 μl of cell lysis buffer (Cell Signaling Technology) and incubation at 4° C. for 20 minutes. 10 μl of antibody/acceptor bead mix [(1/1000 biotinylated-pS935 LRRK2 antibody, 1/1000 total-LRRK2 antibody, 1/100 Acceptor beads in AlphaScreen detection buffer (25 mM Hepes (pH 7.4), 0.5% Triton X-100, 1 mg/ml Dextran 500 and 0.1% BSA)] was then added to each well and plates incubated for 2 hours at ambient temperature in the dark. 10 μl of donor beads solution (1/33.3 donor beads in AlphaScreen detection buffer) was then added to each well. Following incubation for a further 2 hours at ambient temperature in the dark, plates were read on an EnVision™ plate reader at emission 520-620 nm with excitation 680 nm. Dose response curve data was based on a sigmoidal dose-response model.

IC50 | SMILES
> 10 µM | Cc1c2c(nn1C1CC3(COC3)C1)OCCC(C)Nc1nc(ncc1Cl)N2 (racemic)
≤ 0.1 µM | Cc1c2c(nn1C1CCCOC1)OCCCNc1nc(ncc1Cl)N2 (single isomer, unassigned) [E10, 14-Chloro-4-methyl-5-(oxan-3-yl)-8-oxa-2,5,6,12,16,17-hexaaza tricyclo-[11.3.1.0^3,7]heptadeca-1(16),3,6,13(17),14-pentaene]
≤ 0.1 µM | Cc1c2c(nn1C1CCOCC1)OCC(F)CNc1nc(ncc1Cl)N2 (single isomer, unassigned) [E17, 14-Chloro-10-fluoro-4-methyl-5-(oxan-4-yl)-8-oxa-2,5,6,12,16,17-hexaazatricyclo [11.3.1.0^3,7]heptadeca-1(16),3,6,13(17),14-pentaene]
≤ 0.1 µM | Cc1c2c(nn1C1CCOCC1F)OCCC(C)Nc1nc(ncc1Cl)N2 (single isomer, unassigned) [E24, 14-chloro-5-(3-fluorooxan-4-yl)-4,11-dimethyl-8-oxa-2,5,6,12,16,17-hexaazatricyclo [11.3.1.0^3,7]heptadeca-1(17),3,6,13,15-pentaene]
≤ 0.1 µM | CCOC(=O)C(C)(C)n1nc2c(c1C)Nc1ncc(Cl)c(n1)NC(C)CCO2 (single isomer, unassigned) [E38, Ethyl 2-{14-chloro-4,11-dimethyl-8-oxa-2,5,6,12,16,17-hexaazatricyclo [11.3.1.0^3,7]heptadeca-1(16),3,6,13(17),14-pentaen-5-yl}-2-methylpropanoate]
≤ 0.1 µM | Cc1c2c(nn1C(C)(C)C(N)=O)OCCC(C)Nc1nc(ncc1Cl)N2 (single isomer, unassigned) [E42, 2-{14-chloro-4,11-dimethyl-8-oxa-2,5,6,12,16,17-hexaazatricyclo [11.3.1.0^3,7]heptadeca-1(16),3,6,13(17),14-pentaen-5-yl}-2-methylpropanamide]
≤ 0.1 µM | Cc1c2c(nn1C(C)(C)C#N)OCCC(C)Nc1nc(ncc1Cl)N2 (single isomer, unassigned) [E44, 2-{14-chloro-4,11-dimethyl-8-oxa-2,5,6,12,16,17-hexaazatricyclo [11.3.1.0^3,7]heptadeca-1(16),3,6,13(17),14-pentaen-5-yl}-2-methylpropanenitrile]
≤ 0.1 µM | Cc1c2c(nn1C1CCC(N3C[C@@H]4C[C@H]3CO4)CC1)OCCCNc1nc(ncc1Cl)N2 (single isomer, unassigned) [E50]
≤ 0.1 µM | COCCN1CCC(n2nc3c(c2C)Nc2ncc(Cl)c(n2)NCCCO3)C(F)C1 (single isomer, unassigned) [E59, trans-14-chloro-5-[3-fluoro-1-(2-methoxyethyl)piperidin-4-yl]-4-methyl-8-oxa-2,5,6,12,16,17-hexaazatricyclo[11.3.1.0^3,7]heptadeca 1(16),3,6,13(17),14-pentaene]
≤ 0.1 µM | Cc1c2c(nn1C1CCOC(C)C1)OCCC(C)Nc1nc(ncc1Cl)N2 (single isomer, unassigned) [E80, 14-chloro-4,11-dimethyl-5-(2-methyloxan-4-yl)-8-oxa-2,5,6,12, 16,17-hexaazatricyclo[11.3.1.0^3,7]heptadeca-1(16),3,6,13(17),14-pentaene]
≤ 0.1 µM | Cc1c2c(nn1C1COCCC1F)OCCCNc1nc(ncc1Cl)N2 (single isomer, unassigned) [E86, 14-chloro-5-[4-fluorooxan-3-yl]-4-methyl-8-oxa-2,5,6,12,16,17-hexaazatricyclo [11.3.1.0^3,7]heptadeca-1(16),3,6,13(17),14-pentaene]
≤ 0.1 µM | Cc1c2c(nn1C1CCC(O)CC1)OCCC(C)Nc1nc(ncc1Cl)N2 (single isomer, unassigned) [E94, 4-{14-chloro-4,11-dimethyl-8-oxa-2,5,6,12,16,17-hexaazatricyclo [11.3.1.0^3,7]heptadeca-1(16),3,6,13(17),14-pentaen-5-yl}cyclohexan-1-ol]
≤ 0.1 µM | Cc1c2c(nn1C1CCN(C3COC3)CC1F)OCCC(C)Nc1nc(ncc1Cl)N2 (single isomer, unassigned) [E96, 14-chloro-5-[3-fluoro-1-(oxetan-3-yl)piperidin-4-yl]-4,11-dimethyl-8-oxa-2,5,6,12,16,17-hexaazatricyclo[11.3.1.0^3,7]heptadeca-1(16),3,6,13(17),14-pentaene]
≤ 0.1 µM | COCCN1CCC(n2nc3c(c2C)Nc2ncc(Cl)c(n2)N[C@H](C)CCO3)C(F)C1 (single isomer, unassigned) [E100]
≤ 0.1 µM | Cc1c2c(nn1C1CCCOC1)OCCCNc1nc(ncc1C(F)(F)F)N2 (single isomer, unassigned) [E132, 4-methyl-5-(oxan-3-yl)-14-(trifluoromethyl)-8-oxa-2,5,6,12,16,17-hexaazatricyclo[11.3.1.0^3,7]heptadeca-1(16),3,6,13(17),14-pentaene]
≤ 0.1 µM | Cc1c2c(nn1C1CCC(N3CCOCC3)CC1)OCCC(C)Nc1nc(ncc1Cl)N2 (single isomer, unassigned) [E150]
≤ 0.1 µM | Cc1c2c(nn1C1CCC(N3CCC(F)C3)CC1)OCCCNc1nc(ncc1Cl)N2 (single isomer, unassigned) [E152, 14-Chloro-5-[4-(3-fluoropyrrolidin-1-yl)cyclohexyl]-4-methyl-8-oxa-2,5,6,12,16,17-hexaazatricyclo[11.3.1. 0^3,7]heptadeca-1(16),3,6,13(17),14-pentaene]
≤ 0.1 µM | Cc1c2c(nn1C1CCC(N3CCC(F)C3)CC1)OCCC(C)Nc1nc(ncc1Cl)N2 (single isomer, unassigned) [E158, 14-Chloro-5-[4-(3-fluoropyrrolidin-1-yl)cyclohexyl]-4,11-dimethyl-8-oxa-2,5,6,12,16,17-hexaazatricyclo [11.3.1.0^3,7]heptadeca-1(16),3,6,13(17),14-pentaene]
≤ 0.1 µM | Cc1c2c(nn1C(C)(C)C#N)OCC(C)C(C)Nc1nc(ncc1Cl)N2 (single isomer, unassigned) [E165, 2-{14-Chloro-4,10,11-trimethyl-8-oxa-2,5,6, 12,16,17-hexaazatricyclo[11.3.1.0^3,7]heptadeca-1(16),3,6, 13(17),14-pentaen-5-yl}-2-methylpropanenitrile]
≤ 0.1 µM | COCC1CCOc2nn(C3CCOCC3)c(C)c2Nc2ncc(Br)c(n2)N1 (single isomer, unassigned) [E168, 14-Bromo-11-(methoxymethyl)-4-methyl-5-(oxan-4-yl)-8-oxa-2,5,6,12,16,17-hexaazatricyclo[11.3.1.0^3,7] heptadeca-1(16),3,6,13(17),14-pentaene]
≤ 0.1 µM | COC1CCCC(n2nc3c(c2C)Nc2ncc(Cl)c(n2)NC(C)CCO3)C1 (single isomer, unassigned) [E170, 14-Chloro-5-(3-methoxycyclohexyl)-4,11-dimethyl-8-oxa-2,5,6,12,16,17-hexaazatricyclo[11.3.1.0^3,7] heptadeca-1(16),3,6,13(17),14-pentaene]
≤ 0.1 µM | COC1CCCC(n2nc3c(c2C)Nc2ncc(Cl)c(n2)NCCCO3)C1 (single isomer, unassigned) [E178, 14-Chloro-5-(3-methoxycyclohexyl)-4-methyl-8-oxa-2,5,6,12,16,17-hexaazatricyclo[11.3.1.0^3,7]heptadeca-1(16),3,6,13(17),14-pentaene]
≤ 0.1 µM | Cc1c2c(nn1C1CC(C)OC(C)C1)OCCC(C)Nc1nc(ncc1Cl)N2 (single isomer, unassigned) [E194, 14-Chloro-5-(2,6-dimethyloxan-4-yl)-4,11-dimethyl-8-oxa-2,5,6,12,16,17-hexaazatricyclo[11.3.1.0^3,7] heptadeca-1(16),3,6,13(17),14-pentaene]
